Source: BindingDB's records for doi:10.1016/0006-8993(88)90805-0 (Veterans Administration Medical Center, 1988)

Molecular target: Sodium-dependent serotonin transporter (Rattus norvegicus, UniProt P31652)
Sequence (P31652 whole entry): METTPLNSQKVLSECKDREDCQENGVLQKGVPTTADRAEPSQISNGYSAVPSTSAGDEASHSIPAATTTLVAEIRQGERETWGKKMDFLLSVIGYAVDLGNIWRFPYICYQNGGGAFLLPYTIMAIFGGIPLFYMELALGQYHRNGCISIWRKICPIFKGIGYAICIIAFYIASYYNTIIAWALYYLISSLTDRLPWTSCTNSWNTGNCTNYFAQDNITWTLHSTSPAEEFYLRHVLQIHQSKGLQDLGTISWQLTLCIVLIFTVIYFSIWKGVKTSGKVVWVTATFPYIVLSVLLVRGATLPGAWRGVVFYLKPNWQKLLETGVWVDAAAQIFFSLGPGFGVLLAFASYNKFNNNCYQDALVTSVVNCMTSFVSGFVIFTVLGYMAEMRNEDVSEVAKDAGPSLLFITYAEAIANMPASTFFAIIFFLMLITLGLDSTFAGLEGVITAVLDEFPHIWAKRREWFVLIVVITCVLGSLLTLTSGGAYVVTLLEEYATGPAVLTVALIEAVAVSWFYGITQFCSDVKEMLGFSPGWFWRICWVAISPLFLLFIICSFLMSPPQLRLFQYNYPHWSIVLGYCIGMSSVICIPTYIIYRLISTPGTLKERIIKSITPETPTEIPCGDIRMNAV

Structure (SMILES): CC[C@@H](CO)NC(=O)[C@@H]1C=C2c3cccc4c3c(cn4C)C[C@H]2N(C)C1
- Ki: 3.7 µM
